In BindingDB's records for doi:10.7270/Q2Z036M0 (Broad Institute, 2010):

Target: T1, S-ribosylhomocysteine lyase (Vibrio harveyi, UniProt B0LUE4)
T1 sequence (B0LUE4 whole entry): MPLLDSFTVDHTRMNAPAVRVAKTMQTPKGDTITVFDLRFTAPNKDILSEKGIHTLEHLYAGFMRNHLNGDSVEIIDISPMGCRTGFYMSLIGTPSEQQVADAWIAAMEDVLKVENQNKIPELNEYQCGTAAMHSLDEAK
Experiment: AI-2 quorum sensing modulators, luminescence, confirmation, dose retest, Vibrio harveyi (AID 2724)

Structure (SMILES) | EC50 [µM]
C=Cn1c(C(=O)O)ccc1-c1ccc(CC)cc1 | 2.07
COc1cc(NC(=O)CN2C(=O)NC(c3ccccc3)(c3ccccc3)C2=O)cc(OC)c1 [MLS001176525] | 1.57
CCc1ccc(S(=O)(=O)Nc2ccc(Br)cn2)cc1 [MLS001211346] | 3.64
CCCc1ccc(S(=O)(=O)N(C)S(=O)(=O)c2ccc(F)cc2)cc1 [N-(4-fluorophenyl)sulfonyl-N-methyl-4-propylbenzenesulfonamide] | 1.62
CN(C)S(=O)(=O)c1ccc(NC(=S)NC(=O)Cc2ccccc2)cc1 [N-[[4-(dimethylsulfamoyl)phenyl]carbamothioyl]-2-phenyl-ethanamide] | > 160
Cc1cccc(NS(=O)(=O)c2ccc(Oc3ccccc3)cc2)n1 [SMR000071466] | 2.56
Cn1cnc(S(=O)(=O)Nc2ccc(OC(F)(F)F)cc2)c1 [SMR000314513] | 4.39
